From patent publication US20200331850A1, “NOVEL SULFONAMIDE CARBOXAMIDE COMPOUNDS” (Inflazome Limited, priority 2017, published 2020)
Counter-ions that a name gives are not always drawn.

Target: NLRP3 (Homo sapiens, UniProt Q96P20)
Test: Human whole blood IL1β release assay (LPS + nigericin, AlphaLisa IL-1β)
Assay type: cell-based
Parameters: Plate out 80 μl of whole blood containing 1βg/ml of LPS in 96-well, clear bottom cell culture plate; from tissue; host or cells: human whole blood from healthy donors, LPS-primed and nigericin-stimulated
Settings: NLRP3 inhibitory activity in human whole blood, IL-1β release, 10 μM nigericin, read-out: HWB IC50
Procedure: For systemic delivery, the ability to inhibit NLRP3 when the compounds are present within the bloodstream is of great importance. For this reason, the NLRP3 inhibitory activity of a number of compounds in human whole blood was investigated in accordance with the following protocol.
Human whole blood in Li-heparin tubes was obtained from healthy donors from a volunteer donor panel. • 1. Plate out 80 μl of whole blood containing 1βg/ml of LPS in 96-well, clear bottom cell culture plate (Corning #3585) • 2. Add 10 μl compound (8 points half-log dilution with 10 μM top dose) or vehicle (DMSO 0.1% FAC) to the appropriate wells • 3. Incubate for 3 hrs at 37° C., 5% CO2 • 4. Add 10 μl Nigericin (Sigma # N7143) (10 μM FAC) to all wells • 5. Incubate for 1 hr at 37° C., 5% CO2 • 6. At the end of the incubation period, spin plates at 300×g for 5 mins to pellet cells and remove 20 μl of supernatant and add to 96-well v-bottom plates for IL-1β analysis (note: these plates containing the supernatants can be stored at −80° C. to be analysed at a later date) • 7. IL-1β was measured according to the manufacturer protocol (Perkin Elmer-AlphaLisa IL-1 Kit AL220F-5000) • 8. IC50 data is fitted to a non-linear regression equation (log inhibitor vs response-variable slope 4-parameters)

Sequence of NLRP3 (Q96P20 whole entry): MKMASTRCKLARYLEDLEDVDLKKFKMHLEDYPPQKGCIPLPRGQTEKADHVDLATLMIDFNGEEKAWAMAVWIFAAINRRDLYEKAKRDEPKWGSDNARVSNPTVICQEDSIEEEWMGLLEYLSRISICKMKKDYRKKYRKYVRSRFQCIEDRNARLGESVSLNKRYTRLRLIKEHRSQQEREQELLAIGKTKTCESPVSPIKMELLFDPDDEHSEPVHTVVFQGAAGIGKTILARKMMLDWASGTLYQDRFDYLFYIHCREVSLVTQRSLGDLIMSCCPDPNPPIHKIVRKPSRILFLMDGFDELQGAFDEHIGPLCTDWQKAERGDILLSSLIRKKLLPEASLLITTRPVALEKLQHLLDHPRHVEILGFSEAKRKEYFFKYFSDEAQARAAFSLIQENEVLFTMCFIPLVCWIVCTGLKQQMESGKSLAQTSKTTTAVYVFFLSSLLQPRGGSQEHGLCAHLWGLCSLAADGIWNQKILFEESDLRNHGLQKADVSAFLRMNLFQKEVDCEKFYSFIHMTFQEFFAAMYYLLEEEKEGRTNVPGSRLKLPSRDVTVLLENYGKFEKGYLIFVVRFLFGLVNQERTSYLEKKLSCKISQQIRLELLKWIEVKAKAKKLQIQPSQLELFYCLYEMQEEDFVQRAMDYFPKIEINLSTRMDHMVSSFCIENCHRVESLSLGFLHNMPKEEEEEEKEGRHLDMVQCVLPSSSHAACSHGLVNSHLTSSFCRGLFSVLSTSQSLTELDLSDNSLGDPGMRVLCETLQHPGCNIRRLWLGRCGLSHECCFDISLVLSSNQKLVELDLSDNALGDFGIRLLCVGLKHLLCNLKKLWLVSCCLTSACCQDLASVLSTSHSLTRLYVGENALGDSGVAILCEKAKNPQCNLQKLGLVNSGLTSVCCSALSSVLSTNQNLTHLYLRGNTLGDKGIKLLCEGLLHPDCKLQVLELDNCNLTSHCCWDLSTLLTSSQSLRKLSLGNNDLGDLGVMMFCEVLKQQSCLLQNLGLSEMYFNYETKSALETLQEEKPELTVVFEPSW

For CCN1CCC(CS(=O)(=O)NC(=O)Nc2c3c(cc4c2CCC4)CCC3)CC1 [Example 1, 1-(1-Ethylpiperidin-4-yl)-N-((1,2,3,5,6,7-hexahydro-s-indacen-4-yl)carbamoyl)methanesulfonamide, potassium salt], the IC50 was ≤ 1 µM.
In the case of CCN(CCS(=O)(=O)NC(=O)Nc1c2c(cc3c1CCC3)CCC2)Cc1ccccc1 [Example 11, 2-(Benzyl(ethyl)amino)-N-((1,2,3,5,6,7-hexahydro-s-indacen-4-yl)carbamoyl)ethane-1-sulfonamide, potassium salt], the IC50 is reported as ≤ 7.5 µM.
With CCN(CCCCS(=O)(=O)NC(=O)Nc1c2c(cc3c1CCC3)CCC2)Cc1ccccc1 [Example 13, 4-(Benzyl(ethyl)amino)-N-((1,2,3,5,6,7-hexahydro-s-indacen-4-yl)carbamoyl)butane-1-sulfonamide, potassium salt] the IC50 was ≤ 5 µM.
COCCCS(=O)(=O)NC(=O)Nc1c2c(cc3c1CCC3)CCC2 [Example 14, N-((1,2,3,5,6,7-Hexahydro-s-indacen-4-yl)carbamoyl)-3-methoxypropane-1-sulfonamide, Potassium Salt] was tested, and the IC50 was ≤ 5 µM.
For O=C(Nc1c2c(cc3c1CCC3)CCC2)NS(=O)(=O)Cc1cccnc1 [Example 20, N-((1,2,3,5,6,7-Hexahydro-s-indacen-4-yl)carbamoyl)-1-(pyridin-3-yl)methanesulfonamide, potassium salt], the IC50 was ≤ 5 µM.
For CN1CCC(CS(=O)(=O)NC(=O)Nc2c3c(cc4c2CCC4)CCC3)C1 (centres unmarked) [Example 23, N-((1,2,3,5,6,7-Hexahydro-s-indacen-4-yl)carbamoyl)-1-(1-methylpyrrolidin-3-yl)methanesulfonamide, Potassium Salt], the IC50 was ≤ 1 µM.
For CCN(C)CCCS(=O)(=O)NC(=O)Nc1c2c(cc3c1CCC3)CCC2 [Example 27, 3-(Ethyl(methyl)amino)-N-((1,2,3,5,6,7-hexahydro-s-indacen-4-yl)carbamoyl)propane-1-sulfonamide, potassium salt], the IC50 was ≤ 1 µM.
O=C(Nc1c2c(cc3c1CCC3)CCC2)NS(=O)(=O)CCN1CCCCC1 [Example 28, N-((1,2,3,5,6,7-Hexahydro-s-indacen-4-yl)carbamoyl)-2-(piperidin-1-yl)ethane-1-sulfonamide, Potassium Salt] was tested, and the IC50 was ≤ 1 µM.
In the case of Cn1cc(CS(=O)(=O)NC(=O)Nc2c3c(cc4c2CCC4)CCC3)cn1 [Example 35, N-((1,2,3,5,6,7-hexahydro-s-indacen-4-yl)carbamoyl)-1-(1-methyl-1H-pyrazol-4-yl)methanesulfonamide], the IC50 is reported as ≤ 5 µM.
With CC(CN(C)C)CS(=O)(=O)NC(=O)Nc1c2c(cc3c1CCC3)CCC2 (centres unmarked) [Example 36, 3-(Dimethylamino)-N-((1,2,3,5,6,7-hexahydro-s-indacen-4-yl)carbamoyl)-2-methylpropane-1-sulfonamide, potassium salt] the IC50 was ≤ 1 µM.
For CCN(CC)CCCS(=O)(=O)NC(=O)Nc1c(-c2ccncc2)cc(F)c2c1CCC2 [Example 44, 3-(Diethylamino)-N-((7-fluoro-5-(pyridin-4-yl)-2,3-dihydro-1H-inden-4-yl)carbamoyl)propane-1-sulfonamide], the IC50 was ≤ 1 µM.
With CC(=O)N(C)CCCS(=O)(=O)NC(=O)Nc1c2c(cc3c1CCC3)CCC2 [Example 53, N-(3-(N-((1,2,3,5,6,7-Hexahydro-s-indacen-4-yl)carbamoyl)sulfamoyl)propyl)-N-methylacetamide, Potassium Salt] the IC50 was ≤ 1 µM.
In the case of COc1cc(-c2cc(F)cc(C(C)C)c2NC(=O)NS(=O)(=O)CC2CCN(C)C2)ccn1 (centres unmarked) [Example 58, N-((4-Fluoro-2-isopropyl-6-(2-methoxypyridin-4-yl)phenyl)carbamoyl)-1-(1-methylpyrrolidin-3-yl)methanesulfonamide], the IC50 is reported as ≤ 1 µM.
For COc1cc(-c2ccc3c(c2NC(=O)NS(=O)(=O)CC2CCN(C)C2)CCC3)ccn1 (centres unmarked) [Example 59, N-((5-(2-Methoxypyridin-4-yl)-2,3-dihydro-1H-inden-4-yl)carbamoyl)-1-(1-methylpyrrolidin-3-yl)methanesulfonamide], the IC50 was ≤ 1 µM.
For COc1cc(-c2ccc3c(c2NC(=O)NS(=O)(=O)CCOC(C)C)CCO3)ccn1 [Example 62, 2-Isopropoxy-N-((5-(2-methoxypyridin-4-yl)-2,3-dihydro-benzofuran-4-yl)carbamoyl)ethanesulfonamide, sodium salt], the IC50 was ≤ 1 µM.
In the case of CN(CCCS(=O)(=O)NC(=O)Nc1c2c(cc3c1CCC3)CCC2)Cc1ccccc1 [Example 67, 3-(Benzyl(methyl)amino)-N-((1,2,3,5,6,7-hexahydro-s-indacen-4-yl)carbamoyl)propane-1-sulfonamide, potassium salt], the IC50 is reported as ≤ 10 µM.
With CON(C)CCCS(=O)(=O)NC(=O)Nc1c2c(cc3c1CCC3)CCC2 [Example 70, N-((1,2,3,5,6,7-Hexahydro-s-indacen-4-yl)carbamoyl)-3-(methoxy(methyl)amino)propane-1-sulfonamide, Potassium Salt] the IC50 was ≤ 5 µM.
CC1(C)C2CC[C@@]1(CS(=O)(=O)NC(=O)Nc1c3c(cc4c1CCC4)CCC3)/C(=N/O)C2 [Example 71, N-((1,2,3,5,6,7-Hexahydro-s-indacen-4-yl)carbamoyl)-1-((1S,E)-2-(hydroxyimino)-7,7-dimethylbicyclo[2.2.1]heptan-1-yl)methane sulfonamide, Potassium Salt] was tested, and the IC50 was ≤ 10 µM.
O=C(Nc1c2c(cc3c1CCC3)CCC2)NS(=O)(=O)CCCN1CCC1 [Example 72, 3-(Azetidin-1-yl)-N-((1,2,3,5,6,7-hexahydro-s-indacen-4-yl)carbamoyl)propane-1-sulfonamide, Potassium Salt] was tested, and the IC50 was ≤ 1 µM.
With C#CCN(C)CCCS(=O)(=O)NC(=O)Nc1c2c(cc3c1CCC3)CCC2 [Example 73] the IC50 was ≤ 5 µM.
CN1CCOC(CS(=O)(=O)NC(=O)Nc2c3c(cc4c2CCC4)CCC3)C1 (centres unmarked) [Example 74, N-((1,2,3,5,6,7-Hexahydro-s-indacen-4-yl)carbamoyl)-1-(4-methylmorpholin-2-yl)methanesulfonamide, Potassium Salt] was tested, and the IC50 was ≤ 5 µM.
In the case of CC(CCS(=O)(=O)NC(=O)Nc1c2c(cc3c1CCC3)CCC2)N(C)C (centres unmarked) [Example 78, 3-(Dimethylamino)-N-((1,2,3,5,6,7-hexahydro-s-indacen-4-yl)carbamoyl)butane-1-sulfonamide, potassium salt], the IC50 is reported as ≤ 1 µM.
In the case of CN1CC2(COC(CS(=O)(=O)NC(=O)Nc3c4c(cc5c3CCC5)CCC4)C2)C1 (centres unmarked) [Example 80, N-((1,2,3,5,6,7-Hexahydro-s-indacen-4-yl)carbamoyl)-1-(2-methyl-6-oxa-2-azaspiro[3.4]octan-7-yl)methanesulfonamide], the IC50 is reported as ≤ 5 µM.
With CN(C)CC(C)(C)CS(=O)(=O)NC(=O)Nc1c2c(cc3c1CCC3)CCC2 [Example 81, 3-(Dimethylamino)-N-((1,2,3,5,6,7-hexahydro-s-indacen-4-yl)carbamoyl)-2,2-dimethylpropane-1-sulfonamide] the IC50 was ≤ 5 µM.
CN1CCCC(CS(=O)(=O)NC(=O)Nc2c3c(cc4c2CCC4)CCC3)C1 (centres unmarked) [Example 83, N-((1,2,3,5,6,7-Hexahydro-s-indacen-4-yl)carbamoyl)-1-(1-methylpiperidin-3-yl)methanesulfonamide] was tested, and the IC50 was ≤ 1 µM.
For CCN1CCCC(CS(=O)(=O)NC(=O)Nc2c3c(cc4c2CCC4)CCC3)C1 (centres unmarked) [Example 84, 1-(1-Ethylpiperidin-3-yl)-N-((1,2,3,5,6,7-hexahydro-s-indacen-4-yl)carbamoyl)methanesulfonamide], the IC50 was ≤ 1 µM.
For CC1CCN1CCS(=O)(=O)NC(=O)Nc1c2c(cc3c1CCC3)CCC2 (centres unmarked) [Example 89, N-((1,2,3,5,6,7-Hexahydro-s-indacen-4-yl)carbamoyl)-2-(2-methylazetidin-1-yl)ethane-1-sulfonamide], the IC50 was ≤ 1 µM.
With O=C(Nc1c2c(cc3c1CCC3)CCC2)NS(=O)(=O)CCN1CC(F)C1 [Example 90, 2-(3-Fluoroazetidin-1-yl)-N-((1,2,3,5,6,7-hexahydro-s-indacen-4-yl)carbamoyl)ethane-1-sulfonamide] the IC50 was ≤ 5 µM.
For CC(CS(=O)(=O)NC(=O)Nc1c2c(cc3c1CCC3)CCC2)N1CCC1 (centres unmarked) [Example 91, 2-(Azetidin-1-yl)-N-((1,2,3,5,6,7-hexahydro-s-indacen-4-yl)carbamoyl)propane-1-sulfonamide], the IC50 was ≤ 1 µM.
With COC(=O)CCS(=O)(=O)NC(=O)Nc1c2c(cc3c1CCC3)CCC2 [Example 92, Methyl 3-(N-((1,2,3,5,6,7-hexahydro-s-indacen-4-yl)carbamoyl)sulfamoyl)propanoate] the IC50 was ≤ 7.5 µM.
In the case of CC(C)N1CCCC(CS(=O)(=O)NC(=O)Nc2c3c(cc4c2CCC4)CCC3)C1 (centres unmarked) [Example 93, N-((1,2,3,5,6,7-Hexahydro-s-indacen-4-yl)carbamoyl)-1-(1-isopropylpiperidin-3-yl)methanesulfonamide], the IC50 is reported as ≤ 1 µM.
With CC(C)C(=O)N(C)CCCS(=O)(=O)NC(=O)Nc1c2c(cc3c1CCC3)CCC2 [Example 95, N-(3-(N-((1,2,3,5,6,7-Hexahydro-s-indacen-4-yl)carbamoyl)sulfamoyl)propyl)-N-methylisobutyramide] the IC50 was ≤ 5 µM.
